Structures are written as SMILES.

The test system of test [1] is androgen receptor (AR) activation by RhoA V14. In words: ligand-dependent activation of the androgen receptor (AR) by RhoA V14, MMTV-LUC reporter in 293 cells. It counts as cell-based. Particulars: RhoA V14 plasmid, with or without R 1881 10^-10 M, 5×10^−7 M Ro31-8220. The source says:
In another preferred embodiment, the assay system comprises the reaction of the ligand-dependent activation of the androgen receptor (AR) by RhoA V 14. […] Reference is made, in this respect, to FIG. 2.

Test [2] deals with MCF-7 cells. In words: androgen receptor agonist R 1881-induced cell proliferation in MCF-7 cells. It counts as cell-based. As to conditions: presence or absence of R1881, FIG. 3. How it is done:
The inventors studied the cell proliferation inter alia in MCF-7 cells which is induced by the androgen receptor agonist R 1881 under the activating/promoting action of PRKs. MCF-7 cells were cultivated in RPMI 1640 supplemented with 2 g/l NaHCO3, L-Glu, Pen/Strep, 10% FCS (fetal calf serum), and insulin 1U/ml in the presence or absence of R1881 and Ro31-8220 at the indicated concentrations. The cell proliferation assay was performed according to the manufacture's instructions (Roche, #1647229).

For test [3], the system named is protein kinases. As to conditions: described in S. P. Davies et al.; cited from earlier work.

As for `Cn1cc(C2=C(c3cn(CCCSC(=N)N)c4ccccc34)C(=O)NC2=O)c2ccccc21` [Ro31-8220], the “agonist-dependent androgen receptor (AR) activation by RhoA V14” value in test [1] is listed as “abolished”. Besides, in test [2], the “R 1881-induced cell proliferation” value was “inhibited”. For the same compound, the “protein kinases acted on (specificity)” value in test [3] was “act on PRKs, but also on MSK1, S6K1 and other protein kinases”.
On to `C[C@@H](N)[C@H]1CC[C@H](C(=O)Nc2ccncc2)CC1` [Y 27632], for which the “protein kinases acted on (specificity)” value in test [3] is “act on PRKs, but also on MSK1, ROCK-II and MAPKAP-K1b”.

(Values after patent publication US7767411B2, “Assay system for specific inhibitors of protein kinase C-related kinases” (Universitaetsklinikum Freiburg, priority 2004, dated 2010).)
